Converted amounts (≈) assume the structure as drawn. One block for each compound: values may come before it.
Tests used:
Experiment in all cases: ≥ marks a high value that may be exact or a test limit, other limits are often not marked, values filed in µg/mL are converted to µM
Escherichia coli IS117# = tested on: Escherichia coli IS117#
[1] = tested on: Pseudomonas aeruginosa CMCCB 1010
[2] = tested on: Staphylococcus aureus ATCC 25923
Escherichia coli IS37# = tested on: Escherichia coli IS37#
[3] = tested on: Candida albicans ATCC 2002
[4] = tested on: Candida albicans ATCC 90028
[5] = tested on: Klebsiella pneumoniae ATCC 700603
[6] = tested on: Candida parapsilosis ATCC 22019
[7] = tested on: Escherichia coli ATCC 25922
[8] = tested on: Pseudomonas aeruginosa ATCC 27853
[9] = tested on: Enterobacter cloacae ATCC 13047
Shigella dysenteriae = tested on: Shigella dysenteriae
Escherichia coli IS218# = tested on: Escherichia coli IS218#
[10] = tested on: Pseudomonas aeruginosa IS350#
[11] = tested on: Enterococcus faecalis ATCC 29212
[12] = tested on: Pseudomonas aeruginosa Ps71
[13] = tested on: Pseudomonas aeruginosa PAO1
[14] = tested on: Pseudomonas aeruginosa Ps74
[15] = tested on: Pseudomonas aeruginosa Ps21
[16] = tested on: Pseudomonas aeruginosa Ps1
[17] = tested on: Pseudomonas aeruginosa PAOLC1-6
[18] = tested on: Pseudomonas aeruginosa Ps2
[19] = tested on: Pseudomonas aeruginosa Ps6
[20] = tested on: Pseudomonas aeruginosa TNP004
[21] = tested on: Pseudomonas aeruginosa Ps4
[22] = tested on: Pseudomonas aeruginosa Ps64
[23] = tested on: Pseudomonas syringae pv. syringae EPS 94
[24] = tested on: Erwinia amylovora PMV 6076
[25] = tested on: Xanthomonas campestris pv. Vesicatoria 2133-2
Escherichia coli K-12 = tested on: Escherichia coli K-12
Escherichia coli DC2 = tested on: Escherichia coli DC2
[26] = tested on: Staphylococcus aureus UAMS-1
Staphylococcus aureus = tested on: Staphylococcus aureus
Bacillus subtilis = tested on: Bacillus subtilis
[27] = tested on: Staphylococcus aureus PEP 4/3
[28] = tested on: Pseudomonas putida NCIM 2102
Escherichia coli W160-37 = tested on: Escherichia coli W160-37
[29] = tested on: Pseudomonas fluorescens NCIMB 9046
[30] = tested on: Staphylococcus aureus NCTC 8325-4
[31] = tested on: Escherichia coli NCIMB 11843
[32] = tested on: Cronobacter sakazakii ATCC BAA-894
[33] = tested on: Salmonella enterica subsp. enterica serovar Typhimurium LT2
[34] = tested on: Cronobacter muytjensii ATCC 51329
[35] = tested on: Cronobacter sakazakii DPC 6440
[36] = tested on: Klebsiella pneumoniae NCIMB 13218
[37] = tested on: Staphylococcus aureus Newman
[38] = tested on: Staphylococcus aureus SA113
[39] = tested on: Staphylococcus aureus RF122
[40] = tested on: Staphylococcus aureus RN4220
[41] = tested on: Cronobacter sakazakii DSM 4485

Structure (SMILES): CC[C@H](C)[C@@H]1NC(=O)[C@H](C)NC(=O)[C@@H](NC(=O)[C@H](Cc2ccccc2)NC(=O)[C@@H](NC(=O)[C@@H](NC(=O)[C@@H]2CCCN2C(=O)[C@@H](NC(=O)[C@@H](NC(=O)[C@H](CCCCN)NC(=O)CNC(=O)[C@H](CO)NC(=O)[C@@H](NC(=O)[C@H](CS)NC(=O)[C@H](CCC(=O)O)NC(=O)[C@H](CC(C)C)NC(=O)CNC(=O)[C@@H]2CCCN2C(=O)[C@H](CC(C)C)NC(=O)[C@@H](N)Cc2ccccc2)C(C)C)[C@@H](C)CC)C(C)C)[C@@H](C)O)C(C)C)CSSC[C@@H](C(=O)O)NC(=O)[C@H]([C@@H](C)CC)NC(=O)[C@H](CCCN=C(N)N)NC(=O)[C@H]([C@@H](C)O)NC1=O [FLPGLECVSGKIVPTVFCAITRIC]
- MIC (Escherichia coli IS117#): 3.9 µM (≈ 9.99 µg/mL)
- MIC [1]: 1.95 µM (≈ 5 µg/mL)
- MIC [2]: 1.95 µM (≈ 5 µg/mL)
- MIC (Escherichia coli IS37#): 7.79 µM (≈ 20 µg/mL)
- MIC [3]: 1.95 µM (≈ 5 µg/mL)
- MIC [4]: 3.9 µM (≈ 9.99 µg/mL)
- MIC [5]: 1.95 µM (≈ 5 µg/mL)
- MIC [6]: 3.9 µM (≈ 9.99 µg/mL)
- MIC [7]: 0.974 µM (≈ 2.5 µg/mL)
- MIC [8]: 7.79 µM (≈ 20 µg/mL)
- MIC [9]: 3.9 µM (≈ 9.99 µg/mL)
- MIC (Shigella dysenteriae): 3.9 µM (≈ 9.99 µg/mL)
- MIC (Escherichia coli IS218#): 7.79 µM (≈ 20 µg/mL)
- MIC [10]: 7.79 µM (≈ 20 µg/mL)
- MIC [11]: 3.9 µM (≈ 9.99 µg/mL)

Structure (SMILES): NC(=O)[C@H](CCCN=C(N)N)NC(=O)[C@H](CCCN=C(N)N)NC(=O)[C@H](Cc1c[nH]c2ccccc12)NC(=O)[C@H](Cc1ccccc1)NC(=O)[C@H](CCCN=C(N)N)NC(=O)[C@H](CCCN=C(N)N)NC(=O)[C@H](Cc1c[nH]c2ccccc12)NC(=O)[C@@H](N)Cc1ccccc1 [FWRRFWRR]
- MIC [12]: ≥ 34.3 µM
- MIC [13]: 34.3 µM (≈ 44.9 µg/mL)
- MIC [14]: ≥ 135 µM
- MIC [15]: ≥ 135 µM
- MIC [16]: ≥ 34.3 µM
- MIC [17]: ≥ 34.3 µM
- MIC [18]: ≥ 135 µM
- MIC [19]: ≥ 34.3 µM
- MIC [20]: ≥ 34.3 µM
- MIC [21]: ≥ 47.7 µM
- MIC [22]: ≥ 135 µM

Structure (SMILES): CC[C@H](C)[C@H](NC(=O)[C@H](Cc1c[nH]c2ccccc12)NC(=O)[C@H](CCCCN)NC(=O)[C@H](CO)NC(=O)[C@H](CC(C)C)NC(=O)[C@H](Cc1ccccc1)NC(=O)[C@@H](NC(=O)[C@H](CCC(=O)O)NC(=O)[C@H](CC(C)C)NC(=O)[C@H](CC(C)C)NC(=O)[C@H](CCCCN)NC(=O)[C@@H]1CCCN1C(=O)[C@H](CC(N)=O)NC(=O)[C@H](C)NC(=O)[C@H](CC(C)C)NC(=O)[C@H](CCCN=C(N)N)NC(=O)[C@H](CC(N)=O)NC(=O)[C@H](C)NC(=O)[C@H](CC(C)C)NC(=O)[C@H](CCCCN)NC(=O)[C@H](C)NC(=O)[C@H](Cc1ccc(O)cc1)NC(=O)[C@H](CCCN=C(N)N)NC(=O)[C@H](CO)NC(=O)[C@H](CC(C)C)NC(=O)[C@@H](N)CO)[C@@H](C)O)C(=O)NCC(=O)O [SLSRYAKLANRLANPKLLETFLSKWIG]
- MIC (Bacillus subtilis): 4.58 µM (≈ 14.1 µg/mL)
- MIC [27]: 14.5 µM (≈ 44.7 µg/mL)
- MIC [28]: 17.7 µM (≈ 54.8 µg/mL)
- MIC (Escherichia coli W160-37): 4.58 µM (≈ 14.1 µg/mL)

Structure (SMILES): CC[C@H](C)[C@H](NC(=O)[C@@H](N)C(C)C)C(=O)N[C@@H](CC(N)=O)C(=O)N[C@@H](CCC(=O)O)C(=O)N[C@@H](CC(N)=O)C(=O)N[C@@H](CC(C)C)C(=O)N[C@@H](CC(C)C)C(=O)N[C@@H](CCCN=C(N)N)C(=O)O [VINENLLR]
- MIC [29]: ≥ 2500 µM
- MIC [30]: ≥ 625 µM
- MIC [31]: ≥ 2500 µM
- MIC [32]: ≥ 1250 µM
- MIC [33]: ≥ 2500 µM
- MIC [34]: ≥ 1250 µM
- MIC [35]: ≥ 1250 µM
- MIC [36]: ≥ 2500 µM
- MIC [37]: ≥ 1250 µM
- MIC [38]: ≥ 1250 µM
- MIC [39]: ≥ 1250 µM
- MIC [40]: ≥ 1250 µM
- MIC [41]: ≥ 1250 µM

Now from value to compound:

- MIC [23]: 6.12 µM (≈ 17.3 µg/mL)
- MIC [24]: 14.1 µM (≈ 40 µg/mL)
- MIC [25]: 1.77 µM (≈ 5 µg/mL)
Structure (SMILES): CC[C@H](C)[C@H](NC(=O)[C@H](CCCCN)NC(=O)[C@H](CCCCN)NC(=O)[C@H](Cc1ccccc1)NC(=O)[C@H](CC(C)C)NC(=O)[C@H](CCCCN)NC(=O)[C@H](CCCCN)NC(=O)[C@H](CC(C)C)NC(=O)[C@H](Cc1ccc(O)cc1)NC(=O)[C@H](CCCCN)NC(=O)[C@H](CC(C)C)NC(=O)[C@@H](NC(=O)[C@H](CCCCN)NC(=O)[C@H](CCCCN)NC(=O)[C@H](Cc1ccccc1)NC(=O)[C@H](CC(C)C)NC(=O)[C@H](CCCCN)NC(=O)[C@@H](N)CCCCN)[C@@H](C)CC)C(=O)N[C@@H](CC(C)C)C(=O)N[C@@H](CCCCN)C(=O)N[C@@H](Cc1ccc(O)cc1)C(=O)N[C@@H](CC(C)C)C(=O)O [KKLFKKILKYLKKLFKKILKYL]

- MIC (Escherichia coli K-12): ≥ 80 µM
- MIC (Escherichia coli DC2): 9 µM (≈ 25.3 µg/mL)
- MIC [26]: ≥ 160 µM
- MIC (Staphylococcus aureus): > 24 µM
Structure (SMILES): CC[C@H](C)[C@H](NC(=O)[C@H](CCCCN)NC(=O)[C@H](CCC(=O)O)NC(=O)[C@H](CCCCN)NC(=O)[C@H](C)NC(=O)[C@H](CCCCN)NC(=O)[C@H](CCCN=C(N)N)NC(=O)[C@H](Cc1ccccc1)NC(=O)[C@H](Cc1ccccc1)NC(=O)[C@H](CC(=O)O)NC(=O)CNC(=O)[C@H](CC(C)C)NC(=O)[C@@H](N)CC(C)C)C(=O)NCC(=O)N[C@@H](CCCCN)C(=O)N[C@@H](CCC(=O)O)C(=O)N[C@@H](Cc1ccccc1)C(=O)N[C@@H](CCCCN)C(=O)N[C@@H](CCCN=C(N)N)C(=O)N[C@H](C(=O)N[C@H](C(=O)N[C@@H](CCC(N)=O)C(=O)N[C@@H](CCCN=C(N)N)C(=O)O)C(C)C)[C@@H](C)CC [LLGDFFRKAKEKIGKEFKRIVQR]
